Where two headings read alike, the source gives them in different places.

Consider 43 compounds from patent publication US11286268B1, “EIF4E-inhibiting compounds and methods” (EFFECTOR THERAPEUTICS, INC., priority 2019, dated 2022).

The assay has as its target recombinant eIF4E (Homo sapiens (Human), UniProt P06730). Put plainly: Fluorescence polarization competition assay for eIF4E binding potency. As for the experimental part:
Compounds were screened for eIF4E binding potency using a fluorescence polarization competition assay. All binding reactions were performed in fluorescence polarization buffer (FPB) containing 20 mM Tris pH 7.5, 100 mM NaCl, 1 mM DTT, and 0.02% Tween-20. Final binding reactions contained 75 nM recombinant eIF4E (Beryllium, custom order), 20 nM EDA-m^7GDP-ATTO-550 (Jena Bioscience, NU-827-550) and varying concentrations of the inhibitory compound of interest. Final DMSO concentration in each reaction was 1%.
eIF4E protein was pre-incubated with EDA-m^7GDP-ATTO-550 in FPB at 2× concentrations for 5 minutes prior to the addition of compounds. Compounds (100×) were prepared using 3-fold serial dilutions in 100% DMSO, and subsequently diluted 1:50 in FPB to produce 2× stocks. 50 μl of 2× eIF4E/EDA-m^7GDP-ATTO-550 were transferred to the wells of a 96-well half-area black flat bottom polystyrene plate. 50 μl of 2× test compound were added, and binding reactions were allowed to equilibrate for 30 minutes at room temperature while protected from light. The fluorescent polarization signal was detected using a Victor 2 multi-label counter (Perkin Elmer) and the concentration necessary to achieve inhibition of eIF4E/EDA-m^7GDP-ATTO-550 binding by 50% (IC50) was calculated using data from an 8-point compound dilution series.
In Table 4A, IC50 values of less than 0.05 μM are labelled as “+++”, from 1 to 0.05 μM are labelled as “++”, and greater than 1 μM are labelled as “+”. ND=not determined.
Background: Polarisation of emitted light reports the rotation of a fluorescent probe.

The mark [1] stands for this setting: inhibition of eIF4E/EDA-m7GDP-ATTO-550 binding, calculated IC50 values, Table 4B, read-out: IC50.
Setting [2] is: fluorescence polarization competition, 75 nM recombinant eIF4E, 20 nM EDA-m7GDP-ATTO-550, IC50 class, read-out: elF4E FP.
[3] abbreviates: inhibition of eIF4E/EDA-m7GDP-ATTO-550 binding by 50%, Table 4B calculated values, read-out: IC50.

recombinant eIF4E, sequence (P06730 whole entry): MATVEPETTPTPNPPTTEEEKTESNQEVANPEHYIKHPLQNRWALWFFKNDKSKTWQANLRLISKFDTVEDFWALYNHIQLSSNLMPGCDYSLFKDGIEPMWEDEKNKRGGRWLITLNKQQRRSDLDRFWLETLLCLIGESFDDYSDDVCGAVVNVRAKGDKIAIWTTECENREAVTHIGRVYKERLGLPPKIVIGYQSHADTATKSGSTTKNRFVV

For the compound `Cc1nc2cc(C(F)(F)F)c(Cl)c(C#N)c2c(=O)n1CCOc1ccc(Cl)cc1-c1ccnc2c(C(=O)O)csc12` [compound 1904], under setting [1], the IC50 is 36.9 nM.
`Cc1nc2cnc(N3CCN([C@H]4C[C@@H](OC(F)F)C4)CC3)c(C#N)c2c(=O)n1CC#Cc1ccc(Cl)cc1-c1ccnc2c(C(=O)O)csc12` [compound 1511]: the IC50 under setting [1] was 23.2 nM.
As for `Cc1nc2cc(C(F)(F)F)cc(C#N)c2c(=O)n1CC#Cc1ccc(Cl)cc1-c1ccnc2c(C(=O)O)csc12` [compound 120], the IC50 was less than 50 nM under setting [2] and 35.7 nM under setting [3].
The like results for `N#Cc1cccc2nc(C(F)F)n(CCOc3ccc(Cl)cc3-c3ccc(C(=O)O)c4cnsc34)c(=O)c12` [compound 190] were, in that order, 50 to 1000 nM and 301 nM.
Taken in the same sequence, the figures for `N#Cc1cc2c(=O)n(CCOc3ccc(Cl)cc3-c3ccc(OC(F)(F)F)c(C(=O)O)c3)cnc2cn1` [compound 113] were 50 to 1000 nM and 804 nM.
Taken in the same sequence, the figures for `Cc1nc2cc(C(F)(F)F)c(CN3CCN(C)CC3)c(C#N)c2c(=O)n1CCOc1ccc(Cl)cc1-c1cc(CF)nc2c(C(=O)O)csc12` [compound 645] were less than 50 nM and 31.3 nM.
Regarding `Cc1cc(-c2cc(Cl)ccc2OCCn2c(C)nc3cc(OC(F)F)cc(C#N)c3c2=O)c2scc(C(=O)NS(C)(=O)=O)c2n1` [compound 580], the IC50 runs as follows: under setting [2], less than 50 nM; under setting [3], 24.2 nM.
On to `Cc1nc2cc(C(F)(F)F)c(N3CCN(C)CC3)c(C#N)c2c(=O)n1CCOc1ccc(Cl)cc1-c1ccnc(C(=O)O)c1` [compound 1221], for which the IC50 is, setting by setting: under setting [2], less than 50 nM; under setting [1], 30 nM.
With `Cc1nc2cnc(C3CCCN(CC(F)F)C3)c(C#N)c2c(=O)n1CC#Cc1ccc(Cl)cc1-c1ccnc2c(C(=O)O)csc12` (stereo not shown) [compound 1574], the IC50 under setting [1] was 13.4 nM.
Consider `CCc1cc(-c2cc(Cl)ccc2OCCn2c(C)nc3cnc(N4CCN(C)C5CC54)c(C#N)c3c2=O)c2scc(C(=O)O)c2n1` (stereo not shown) [compound 1219], for which the IC50 runs as follows: under setting [2], less than 50 nM; under setting [1], 3.99 nM.
For `Cc1cc(-c2cc(Cl)ccc2OCCn2c(C)nc3cc(C(F)(F)F)c(-c4ncccc4C)c(C#N)c3c2=O)c2scc(C(=O)O)c2n1` [compound 1380], the IC50 under setting [1] is 26.6 nM.
For the compound `Cc1nc2cc(C(F)F)c(CN(C)C)c(C#N)c2c(=O)n1CCOc1ccc(Cl)cc1-c1ccnc2c(C(=O)O)csc12` [compound 530], the IC50 was less than 50 nM under setting [2] and 6.65 nM under setting [3].
Taken in the same sequence, the figures for `COc1c(C(F)(F)F)cc2nc(C)n(CCOc3ccc(Cl)cc3-c3cc(C)nc4c(C(=O)O)csc34)c(=O)c2c1C#N` [compound 1036] were less than 50 nM and 3.51 nM.
Taken in the same sequence, the figures for `Cc1cc(-c2cc(Cl)ccc2OCCn2c(C)nc3cc(C(F)(F)F)c(-c4cncnc4)nc3c2=O)c2scc(C(=O)O)c2n1` [compound 768] were less than 50 nM and 22.4 nM.
Taken in the same sequence, the figures for `Cc1cc(-c2cc(Cl)ccc2OCCn2c(C)nc3cc(C(F)(F)F)c(N4CCC(C)CC4)nc3c2=O)c2scc(C(=O)O)c2n1` [compound 800] were less than 50 nM and 32.4 nM.
As to `CCCc1ncc2nc(C)n(CCOc3ccc(Cl)cc3-c3cc(C)nc4c(C(=O)O)csc34)c(=O)c2c1C#N` [compound 1063], the IC50 under setting [2] is less than 50 nM.
For `Cc1nc2cc(S(=O)(=O)N(C)C)c(Cl)c(C#N)c2c(=O)n1CCOc1ccc(Cl)cc1-c1ccnc2c(C(=O)O)csc12` [compound 1948], under setting [1], the IC50 was 35.6 nM.
The same measure, in the same setting: the result for `Cc1nc2cncc(Br)c2c(=O)n1CCOc1ccc(Cl)cc1-c1cccc(C(=O)O)c1` [compound 1999] reads 482 nM.
With `Cc1nc2cc(C(F)(F)F)cc(Br)c2c(=O)n1CCOc1ccc(Cl)cc1-c1cccc(C(=O)O)c1` [compound 304], the IC50 reads like this: under setting [2], greater than 1000 nM; under setting [3], 1600 nM.
Turning to `Cc1cc(-c2cc(Cl)ccc2OCCn2c(C)nc3cnc(N(C)C)c(C#N)c3c2=O)c2scc(C(=O)O)c2n1` [compound 791], the IC50 under setting [2] is less than 50 nM and the IC50 under setting [3] is 3.59 nM.
Consider `Cc1ccc(-c2cc(Cl)ccc2OCCn2c(C)nc3c(N(C)C)ncc(C#N)c3c2=O)c2scc(C(=O)O)c12` [compound 725], for which the IC50 under setting [2] is less than 50 nM and the IC50 under setting [3] is 38.2 nM.
Taken in the same sequence, the figures for `Cc1cc(-c2cc(Cl)ccc2OCCn2c(C)nc3cc(C(F)(F)F)c(OCC(F)(F)F)c(C#N)c3c2=O)c2scc(C(=O)O)c2n1` [compound 1074] were less than 50 nM and 17.4 nM.
Take `CC(=O)c1nc2c(=O)n(CCOc3ccc(Cl)cc3-c3cc(C)nc4c(C(=O)O)csc34)c(C)nc2cc1C(F)(F)F` [compound 780]: the IC50 by setting is: under setting [2], less than 50 nM; under setting [3], 9.6 nM.
Taken in the same sequence, the figures for `Cc1cc(-c2cc(Cl)ccc2OCCn2c(C)nc3cc(C(F)(F)F)c(-c4ncccn4)nc3c2=O)c2scc(C(=O)O)c2n1` [compound 765] were less than 50 nM and 9.19 nM.
Taken in the same sequence, the figures for `Cc1cc(-c2cc(Cl)ccc2OCCn2c(C)nc3cc(Cl)c(N4CCC(F)(F)CC4)c(C#N)c3c2=O)c2scc(C(=O)O)c2n1` [compound 919] were less than 50 nM and 17.7 nM.
For `N#Cc1cc(C(F)(F)F)cc2ncn(CCOc3ccc(Cl)cc3-c3ccnc4c(C(=O)O)csc34)c(=O)c12` [compound 164], under setting [3], the IC50 is 16.4 nM.
Consider `Cc1nc2cc(C(F)(F)F)c(CN3CCC(F)(F)CC3)c(C#N)c2c(=O)n1CCOc1ccc(Cl)cc1-c1ccnc2c(C(=O)O)csc12` [compound 522], for which the IC50 is, setting by setting: under setting [2], less than 50 nM; under setting [3], 22.7 nM.
The like results for `Cc1cc(-c2cc(Cl)ccc2OCCn2c(C)nc3cc(C(F)(F)F)c(-c4cncc(C(F)(F)F)n4)nc3c2=O)c2scc(C(=O)O)c2n1` [compound 1021] were, in that order, less than 50 nM and 21.1 nM.
Taken in the same sequence, the figures for `Cc1nc2c(F)cc(F)c(C#N)c2c(=O)n1CCOc1ccc(Cl)cc1-c1ccnc2c(C(=O)O)csc12` [compound 241] were less than 50 nM and 4.87 nM.
Turning to `Cc1nc2c(F)cc(C(F)F)c(C#N)c2c(=O)n1CCOc1ccc(Cl)cc1-c1ccnc2c(C(=O)NS(C)(=O)=O)csc12` [compound 1945], under setting [1], the IC50 is 44.9 nM.
Same read-out and setting: in the case of `Cc1ncc(F)cc1-c1c(CN(C)C)cc2nc(C)n(CCOc3ccc(Cl)cc3-c3ccnc4c(C(=O)O)c(C)sc34)c(=O)c2c1C#N` [compound 1284] it was greater than 1000 nM.
Regarding `Cc1nc2cnc(N(C)C3CCN(CC(F)(F)C(F)(F)F)CC3)c(C#N)c2c(=O)n1CC#Cc1ccc(Cl)cc1-c1ccnc2c(C(=O)O)csc12` [compound 1119], the IC50 under setting [2] is less than 50 nM and the IC50 under setting [3] was 14.6 nM.
As to `Cc1nc2cnc(/C=C/CN(C)C)c(C#N)c2c(=O)n1CC#Cc1ccc(Cl)cc1-c1ccnc2c(C(=O)O)csc12` [compound 1498], under setting [1], the IC50 was 29.1 nM.
Regarding `Cc1cc(-c2cc(Cl)ccc2OCCn2c(C)nc3cnc(N4CC(C)(O)C4)c(C#N)c3c2=O)c2scc(C(=O)O)c2n1` [compound 1057], the IC50 is, setting by setting: under setting [2], less than 50 nM; under setting [3], 12.5 nM.
Regarding `Cc1nc2cnc(C3=CCC(F)(F)CC3)c(C#N)c2c(=O)n1CC#Cc1ccc(Cl)cc1-c1ccnc2c(C(=O)O)csc12` [compound 1482], the IC50 under setting [1] is 16.6 nM.
On to `Cc1nc2cnc(N(C)C3CCN(CC(C)(F)F)CC3)c(C#N)c2c(=O)n1CC#Cc1ccc(Cl)cc1-c1ccnc2c(C(=O)NS(=O)(=O)CC(F)F)csc12` [compound 1105], for which the IC50 under setting [2] is less than 50 nM and the IC50 under setting [3] was 21.7 nM.
For the compound `Cc1cc(-c2cc(Cl)ccc2OCCn2c(C)nc3cc(C(F)(F)F)cc(C#N)c3c2=O)c2scc(C(=O)O)c2c1F` [compound 333], under setting [3], the IC50 was 24.9 nM.
Consider `CC(C)(C)c1cc(C(=O)O)cc(-c2cc(Cl)ccc2OCCn2cnc3cnc(C#N)cc3c2=O)c1` [compound 105], for which the IC50 is greater than 1000 nM under setting [2] and greater than 3000 nM under setting [3].
`Cc1nc2cnc(N(C)C3CCN([C@H]4C[C@@H](OC(F)(F)F)C4)CC3)c(C#N)c2c(=O)n1CC#Cc1ccc(Cl)cc1-c1ccnc2c(C(=O)NS(=O)(=O)c3cccnc3)csc12` [compound 1774]: under setting [1], the IC50 was 45 nM.
On to `Cc1cc(-c2cc(Cl)ccc2OCCn2c(C)nc3c(F)cc(Cl)c(C#N)c3c2=O)c2scc(C(=O)O)c2n1` [compound 588], for which the IC50 is, setting by setting: under setting [2], less than 50 nM; under setting [3], 49.3 nM.
For `COC(=O)c1csc2c(-c3cc(Cl)ccc3OCCn3c(C)nc4cc(C(F)(F)F)c(Cl)c(C#N)c4c3=O)ccnc12` [compound 1905], the IC50 under setting [1] is 881 nM.
In the case of `Cc1nc2cnc(N3CC4(C3)CN(C3CC3)C4)c(C#N)c2c(=O)n1CCOc1ccc(Cl)cc1-c1ccnc2c(C(=O)O)csc12` [compound 1314], the IC50 under setting [1] was 18.1 nM.
With `Cc1cc(-c2cc(Cl)ccc2OCCn2c(C)nc3cc4c(c(C#N)c3c2=O)CN(C)CC4)c2scc(C(=O)O)c2n1` [compound 336], the IC50 is less than 50 nM under setting [2] and 27.9 nM under setting [3].
